Laboratory results as given in patent publication US20240336551A1, “BIODEGRADEBLE MATERIAL MANUFACTURING METHOD AND SYSTEM” (NOROO IC Co., Ltd., priority 2023, published 2024).

Tests used:
[1] = Degree of biodegradability: cumulative amount of CO2 generated over time (FIG. 4)
Excerpt: In describing the present invention, “biodegradable” refers to a definition based on ASTM […]-15 (Standard Test Method for Determination of Aerobic Biodegradation of Plastic Materials Under Controlled Composting Conditions, Incorporating Thermophilic Temperatures). […] This is a much faster biodegradation rate than that of poly (lactic acid) (PLA), which is a biodegradable polymer.

microorganisms = experiment: Sterilization experiment, overall conclusion; type: cell-based; conditions: conclusion drawn from Table 1
Description: (§1) Meanwhile, a sterilization experiment was conducted on ethyl 3-HP, a biodegradable material manufactured by the system of the present invention, and the data thereof is shown in Table 1 below. The sterilization experiment was conducted by a test method according to the KCL-FIR-1002:2021 standard.
From the above data, it can be confirmed that […].

[2] = tested on: MRSA bacteria (Staphylococcus aureus subsp. aureus); experiment: Sterilization experiment (antimicrobial test, KCL-FIR-1002:2021): MRSA bacteria; type: cell-based
Description: as §1

[3] = tested on: (Bacillus cereus ATCC 11778); experiment: Sterilization experiment (antimicrobial test, KCL-FIR-1002:2021): Bacillus cereus; type: cell-based; conditions: after 24 hours, versus BLANK
Description: as §1

[4] = tested on: Streptococcus (Bacillus cereus ATCC 11778); experiment: as above; type: cell-based; conditions: initial concentration 3.0*10^4 CFU/ml, BLANK 3.1*10^5
Description: as §1

[5] = tested on: Streptococcus mutans ATCC 25175; experiment: Sterilization experiment (antimicrobial test, KCL-FIR-1002:2021): Streptococcus mutans; type: cell-based
Description: as §1

[6] = tested on: Escherichia coli ATCC 25922; experiment: Sterilization experiment (antimicrobial test, KCL-FIR-1002:2021): Escherichia coli; type: cell-based
Description: as §1

[7] = tested on: Staphylococcus aureus ATCC 6538; experiment: Sterilization experiment (antimicrobial test, KCL-FIR-1002:2021): Staphylococcus aureus; type: cell-based
Description: as §1

Row | Compound | Biodegradability compared to PLA [1] | Bacteriostatic / sterilizing effect (microorganisms) | Bacteriostatic reduction rate ([2]; after 24 hours, versus BLANK) [%] | Concentration after 24 hours ([2]; initial concentration 2.5*10^4 CFU/ml, BLANK 2.6*10^5) | Bacteriostatic reduction rate [3] [%] | Concentration after 24 hours [4] | Bacteriostatic reduction rate ([5]; after 24 hours, versus BLANK) [%] | Concentration after 24 hours ([5]; initial concentration 2.6*10^4 CFU/ml, BLANK 2.7*10^5) | Bacteriostatic reduction rate ([6]; after 24 hours, versus BLANK) [%] | Concentration after 24 hours ([6]; initial concentration 1.3*10^4 CFU/ml, BLANK 1.5*10^5) | Bacteriostatic reduction rate ([7]; after 24 hours, versus BLANK) [%] | Concentration after 24 hours ([7]; initial concentration 3.4*10^4 CFU/ml, BLANK 3.7*10^5)
1 | O=C(O)CCO [3-HP, 3-hydroxy propionate] | excellent biodegradability compared to PLA | only the bacteriostatic effect and no sterilizing effect |  |  |  |  |  |  |  |  |  | 
2 | CCOC(=O)CCO [Ethyl 3-HP, ethyl 3-hydroxypropionate] | excellent biodegradability compared to PLA |  | 61.5 | 1.0*10^5 CFU/ml | 45.1 | 1.7*10^5 CFU/ml | 48.1 | 1.4*10^5 CFU/ml | 20 | 1.2*10^5 CFU/ml | 8.1 | 3.4*10^5 CFU/ml
